In patent US8895585B2, “Nicotinamide derivative or salt thereof” (FUJIFILM Corporation, priority 2010, dated 2014):

Target: T1, glutathione S-transferase (GST)-fused full-length human Syk protein (Homo sapiens, UniProt P43405)
T1 construct: (GST)-fused full-length human Syk protein; GST (glutathione S-transferase); purchased Carna Biosciences
Test: Syk enzyme assay
Format: biochemical
Conditions: Syk enzyme assay, Test Example 1; read-out: IC50 of Syk-inhibitory activity
Outline: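 IC50 values come from a time-resolved FRET readout (615 and 665 nm) of substrate phosphorylation, measured after an EDTA stop and 1 h antibody binding. The kinase reaction ran 40 min at room temperature with 27 μM ATP and 0.4 μM biotin-peptide, following a 15 min compound preincubation with baculovirus-made GST-full-length human Syk.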

Q: Which IC50 does the source give for `NC(=O)c1cc(F)c(N[C@@H]2CCCC[C@@H]2N)nc1Nc1ccc(N2CC3(COC3)C2)nc1` [Example 006-467, 2-((6-(2-oxa-6-azaspiro[3.3]heptane-6-yl)pyridin-3-yl)amino)-6-(((1R,2S)-2-aminocyclohexyl)amino)-5-fluoronicotinamide] here?
A: Its IC50 is 10 to 50 nM.

Q: Which IC50 does the source give for `NC(=O)c1cc(F)c(N[C@@H]2CCCC[C@@H]2N)nc1Nc1ccc2c(F)nn(C3CC3)c2c1` [Example 006-476, 6-(((1R,2S)-2-aminocyclohexyl)amino)-2-((1-cyclopropyl-3-fluoro-1H-indazol-6-yl)amino)-5-fluoronicotinamide] here?
A: Its IC50 is < 10 nM.

Q: Which IC50 does the source give for `CCCc1nn(C2CC2)c2ccc(Nc3nc(N[C@@H]4CCCC[C@@H]4N)c(F)cc3C(N)=O)cc12` [Example 006-479, 6-(((1R,2S)-2-aminocyclohexyl)amino)-2-((1-cyclopropyl-3-propyl-1H-indazol-5-yl)amino)-5-fluoronicotinamide] here?
A: Its IC50 is < 10 nM.

Q: Which IC50 does the source give for `C[C@H](N)[C@@H](CC1CC1)Nc1nc(Nc2ccc3c(F)nn(C4CC4)c3c2)c(C(N)=O)cc1F` [Example 006-481, 6-(((2R,3S)-3-amino-1-cyclopropylbutan-2-yl)amino)-2-((1-cyclopropyl-3-fluoro-1H-indazol-6-yl)amino)-5-fluoronicotinamide] here?
A: Its IC50 is 100 to 1000 nM.

Q: Which IC50 does the source give for `CCCc1nn(C2CC2)c2ccc(Nc3nc(N[C@H](CC4CC4)[C@H](C)N)c(F)cc3C(N)=O)cc12` [Example 006-482, 6-(((2R,3S)-3-amino-1-cyclopropylbutan-2-yl)amino)-2-((1-cyclopropyl-3-propyl-1H-indazol-5-yl)amino)-5-fluoronicotinamide] here?
A: Its IC50 is < 10 nM.

Q: `COCCn1nc(F)c2c(Nc3nc(N[C@H](CC4CC4)[C@H](C)N)c(F)cc3C(N)=O)cccc21` [Example 006-490, 6-(((2R,3S)-3-amino-1-cyclopropylbutan-2-yl)amino)-5-fluoro-2-((3-fluoro-1-(2-methoxyethyl)-1H-indazol-4-yl)amino)nicotinamide] was tested. Which IC50 did it give?
A: Its IC50 is 50 to 100 nM.

Q: For `C[C@H](N)[C@@H](CC1CC1)Nc1nc(Nc2cccc3c2c(F)nn3CCF)c(C(N)=O)cc1F` [Example 006-491, 6-(((2R,3S)-3-amino-1-cyclopropylbutan-2-yl)amino)-5-fluoro-2-((3-fluoro-1-(2-fluoroethyl)-1H-indazol-4-yl)amino)nicotinamide], which IC50 is on record?
A: The IC50 was 10 to 50 nM.

Q: How did the IC50 turn out when `C[C@H](N)[C@@H](CC1CC1)Nc1nc(Nc2cccc3c2c(F)nn3CC(F)F)c(C(N)=O)cc1F` [Example 006-492, 6-(((2R,3S)-3-amino-1-cyclopropylbutan-2-yl)amino)-2-((1-(2,2-difluoroethyl)-3-fluoro-1H-indazol-4-yl)amino)-5-fluoronicotinamide] was run?
A: The IC50 was 10 to 50 nM.

Q: `NC(=O)c1cc(F)c(N[C@@H]2CCCC[C@@H]2N)nc1Nc1cnc(O)c(-n2nccn2)c1` [Example 006-504, 6-(((1R,2S)-2-aminocyclohexyl)amino)-5-fluoro-2-((6-hydroxy-5-(2H-1,2,3-triazol-2-yl)pyridin-3-yl)amino)nicotinamide] was tested. Which IC50 did it give?
A: The IC50 was 50 to 100 nM.

Q: Which IC50 does the source give for `C[C@H](N)[C@H](Nc1nc(Nc2cnc3c(c2)OCO3)c(C(N)=O)cc1F)C1CC1` [Example 006-514, 2-([1,3]dioxolo[4,5-b]pyridin-6-ylamino)-6-(((1R,2S)-2-amino-1-cyclopropylpropyl)amino)-5-fluoronicotinamide] here?
A: Its IC50 is 50 to 100 nM.

Q: How did the IC50 turn out when `COCCOc1ncc(Nc2nc(N[C@@H]3CCCC[C@@H]3N)c(F)cc2C(N)=O)cc1-n1ccnn1` [Example 006-518, 6-(((1R,2S)-2-aminocyclohexyl)amino)-5-fluoro-2-((6-(2-methoxyethoxy)-5-(1H-1,2,3-triazol-1-yl)pyridin-3-yl)amino)nicotinamide] was run?
A: Its IC50 is 50 to 100 nM.

Q: With `NC(=O)c1cc(F)c(N[C@@H]2CCCC[C@@H]2N)nc1Nc1cnc(N2CCOCC2)c(-n2cccn2)c1` [Example 006-527, 6-(((1R,2S)-2-aminocyclohexyl)amino)-5-fluoro-2-((6-morpholino-5-(1H-pyrazol-1-yl)pyridin-3-yl)amino)nicotinamide] as the molecule, how does the IC50 read?
A: Its IC50 is 50 to 100 nM.

Q: For `NC(=O)c1cc(F)c(N[C@@H]2CCCC[C@@H]2N)nc1Nc1cnc(N2CCOCC2)c(C2CC2)c1` [Example 006-528, 6-(((1R,2S)-2-aminocyclohexyl)amino)-2-((5-cyclopropyl-6-morpholinopyridin-3-yl)amino)-5-fluoronicotinamide], which IC50 is on record?
A: Its IC50 is 10 to 50 nM.

Q: Which IC50 does the source give for `COc1cc(Nc2nc(NC3CN(C(=O)OCc4ccccc4)CCC3N)c(F)cc2C(N)=O)ccn1` [Example 006-529, (3R,4S)-benzyl 4-amino-3-((5-carbamoyl-3-fluoro-6-((2-methoxypyridin-4-yl)amino)pyridin-2-yl)amino)piperidine-1-carboxylate) and (3S,4R)-benzyl-4-amino-3-((5-carbamoyl-3-fluoro-6-((2-methoxypyridin-4-yl)amino)pyridin-2-yl)amino)piperidine-1-carboxylate(=1:1)] here?
A: Its IC50 is 100 to 1000 nM.

Q: For `COc1cc(Nc2nc(NC3CCN(C(=O)OCc4ccccc4)CC3N)c(F)cc2C(N)=O)ccn1` [Example 006-530, (3S,4R)-benzyl 3-amino-4-((5-carbamoyl-3-fluoro-6-((2-methoxypyridin-4-yl)amino)pyridin-2-yl)amino)piperidine-1-carboylate and (3R,4S)-benzyl 3-amino-4-((5-carbamoyl-3-fluoro-6-((2-methoxypyridin-4-yl)amino)pyridin-2-yl)amino)piperidine-1-carboxylate(=1:1)], which IC50 is on record?
A: The IC50 was < 10 nM.

Q: Which IC50 does the source give for `COc1cc(Nc2nc(N[C@@H]3COCC[C@@H]3N)c(F)cc2C(N)=O)ccn1` [Example 006-532, 6-(((3S,4S)-4-aminotrahydro-2H-pyran-3-yl)amino)-5-fluoro-2-((2-methoxypyridin-4-yl)amino)nicotinamide] here?
A: The IC50 was 100 to 1000 nM.

Q: For `NC(=O)c1cc(F)c(N[C@@H]2CCCC[C@@H]2N)nc1Nc1cnc(N2CCOCC2)c(-n2nccn2)c1` [Example 006-533, 6-(((1R,2S)-2-aminocyclohexyl)amino)-5-fluoro-2-((6-morpholino-5-(2H-1,2,3-triazol-2-yl)pyridin-3-yl)amino)nicotinamide], which IC50 is on record?
A: Its IC50 is 10 to 50 nM.

Q: For `NC(=O)c1cc(F)c(N[C@@H]2CCCC[C@@H]2N)nc1Nc1cnc(N2CCOCC2)c(-n2ccnn2)c1` [Example 006-534, 6-(((1R,2S)-2-aminocyclohexyl)amino)-5-fluoro-2-((6-morpholino-5-(1H-1,2,3-triazol-1-yl)pyridin-3-yl)amino)nicotinamide], which IC50 is on record?
A: Its IC50 is 100 to 1000 nM.

Q: For `NC(=O)c1cc(F)c(N[C@@H]2CCCC[C@@H]2N)nc1Nc1ccc(-n2ccnc2)nc1` [Example 006-535, 2-((6-(1H-imidazole-1-yl)pyridin-3-yl)amino)-6-(((1R,2S)-2-aminocyclohexyl)amino)-5-fluoronicotinamide], which IC50 is on record?
A: The IC50 was 50 to 100 nM.

Q: How did the IC50 turn out when `Cc1nccn1-c1ccc(Nc2nc(N[C@@H]3CCCC[C@@H]3N)c(F)cc2C(N)=O)cn1` [Example 006-536, 6-(((1R,2S)-2-aminocyclohexyl)amino)-5-fluoro-2-((6-(2-methyl-1H-imidazol-1-yl)pyridin-3-yl)amino)nicotinamide] was run?
A: Its IC50 is 100 to 1000 nM.

Q: `CCc1nn(C)c2ccc(Nc3nc(N[C@H](CC(C)C)[C@H](C)N)c(F)cc3C(N)=O)cc12` [Example 006-538, 6-(((2S,3R)-2-amino-5-methylhexan-3-yl)amino)-2-((3-ethyl-1-methyl-1H-indazol-5-yl)amino)-5-fluoronicotinamide] was tested. Which IC50 did it give?
A: The IC50 was < 10 nM.

Q: How did the IC50 turn out when `CCc1nn(CC)c2ccc(Nc3nc(N[C@H](CC(C)C)[C@H](C)N)c(F)cc3C(N)=O)cc12` [Example 006-540, 6-(((2S,3R)-2-amino-5-methylhexan-3-yl)amino)-2-((1,3-diethyl-1H-indazol-5-yl)amino)-5-fluoronicotinamide] was run?
A: Its IC50 is < 10 nM.

Q: `CC(C)C[C@@H](Nc1nc(Nc2ccc3c(c2)c(C(C)C)nn3C)c(C(N)=O)cc1F)[C@H](C)N` [Example 006-542, 6-(((2S,3R)-2-amino-5-methylhexan-3-yl)amino)-5-fluoro-2-((3-isopropyl-1-methyl-1H-indazol-5-yl)amino)nicotinamide] was tested. Which IC50 did it give?
A: Its IC50 is < 10 nM.

Q: Which IC50 does the source give for `CCn1nc(C2CC2)c2cc(Nc3nc(N[C@H](CC4CC4)[C@H](C)N)c(F)cc3C(N)=O)ccc21` [Example 006-549, 6-(((2R,3S)-3-amino-1-cyclopropylbutan-2-yl)amino)-2-((3-cyclopropyl-1-ethyl-1H-indazol-5-yl)amino)-5-fluoronicotinamide] here?
A: The IC50 was < 10 nM.

Q: For `Cn1nc(N2CCOCC2)c2cc(Nc3nc(N[C@@H]4CCCC[C@@H]4N)c(F)cc3C(N)=O)ccc21` [Example 006-560, 6-(((1R,2S)-2-aminocyclohexyl)amino)-5-fluoro-2-((1-methyl-3-morpholino-1H-indazol-5-yl)amino)nicotinamide], which IC50 is on record?
A: Its IC50 is 10 to 50 nM.

Q: With `C[C@H](N)[C@@H](CC1CC1)Nc1nc(Nc2ccc3c(c2)c(N2CCOCC2)nn3C)c(C(N)=O)cc1F` [Example 006-561, 6-(((2R,3S)-3-amino-1-cyclopropylbutan-2-yl)amino)-5-fluoro-2-((1-methyl-3-morpholino-1H-indazol-5-yl)amino)nicotinamide] as the molecule, how does the IC50 read?
A: Its IC50 is < 10 nM.

Q: Which IC50 does the source give for `CC(C)C[C@@H](Nc1nc(Nc2ccc3c(c2)c(N2CCOCC2)nn3C)c(C(N)=O)cc1F)[C@H](C)N` [Example 006-562, 6-(((2S,3R)-2-amino-5-methylhexan-3-yl)amino)-5-fluoro-2-((1-methyl-3-morpholino-1H-indazol-5-yl)amino)nicotinamide] here?
A: Its IC50 is < 10 nM.

Q: Which IC50 does the source give for `COCCOc1ncc(Nc2nc(N[C@@H]3CCCC[C@@H]3N)c(F)cc2C(N)=O)cc1N1CCOCC1` [Example 006-566, 6-(((1R,2S)-2-aminocyclohexyl)amino)-5-fluoro-2-((6-(2-methoxyethoxy)-5-morpholinopyridin-3-yl)amino)nicotinamide] here?
A: The IC50 was 100 to 1000 nM.

Q: With `Cc1ncc(Nc2nc(N[C@@H]3CCCC[C@@H]3N)c(F)cc2C(N)=O)cc1Cl` [Example 006-567, 6-(((1R,2S)-2-aminocyclohexyl)amino)-2-((5-chloro-6-methylpyridin-3-yl)amino)-5-fluoronicotinamide] as the molecule, how does the IC50 read?
A: Its IC50 is 10 to 50 nM.
